Reference: EP3243509A1, “OROBUCCAL ABSORPTION COMPOSITION FOR NEURO-PROTECTION” (priority 2016, dated 2017)

Assays:
[1] = tested on: rat model with Alzheimer disease; details: Salkovic-Petrisic et al. 2014; cited from earlier work
multiple sclerosis (MS) = details: part intravenously, part per os; Hartstein and Ulett 1957; cited from earlier work
[2] = tested on: open-angle acute primary glaucoma; assay: Clinical Case Report 2; assay type: in vivo, patient; details: ophthalmic treatment for IOP, after 4 months of treatment

SMILES | effect of the oral treatment (learning capacity and memory) [1] | symptoms of the disease (multiple sclerosis (MS)) | field of vision and acuity [2]
O=C[C@H](O)[C@@H](O)[C@@H](O)[C@H](O)CO [D-galactose] | beneficial effect | improved the symptoms of the disease | –
CC(C)NCC(O)COc1ccc(CCOCC2CC2)cc1 (stereo not drawn) [beta-toxolol, betaxolol] | – | – | not improved
